Where two headings read alike, the source gives them in different places.
Key:
Assay type in all cases: cell-based
CK1alpha = target: T1, CK1alpha (Homo sapiens, UniProt P48729+Q96SW2); assay: Selectivity determination by Western blot assay in MM1S cells: CK1alpha; settings: MM1S cells, 0.3, 3 and 30 μM, 6 hours
T1 construct: MM1S cells were purchased from ATCC (cat. Number CRL-2974); host or cells: MM1S cells
Method: (§1) MM1S cells were purchased from ATCC (cat. Number CRL-2974), sub-cultured in […] RPMI 1640 with 10% FBS, supplemented with Ix P/S and incubated at 37° C., […]. Compounds were stored as 10 mM DMSO stock. For the assay, MM1S cells (3 million cells/well) were plated in 6-well plates and incubated over night. Cells were treated with respective compounds using a serial dilution: 0.3 μM, 3 μM and 30 μM as well as a vehicle only (DMSO) control for 6 hours. Media with suspension cells was subsequently transferred to 15 mL conical tubes, wells rinsed twice with ice-cold PBS and merged with cell suspension in respective 15 mL conical tube. Cells were spinned down, supernatant aspirated, pellets resuspended in ice-cold PBS and transferred to microtubes. Cells were spinned down, supernatant aspirated and pellets resuspended in 120 μL RIPA lysis buffer supplemented with protease and phosphatase inhibitors. Cell lysates were incubated on ice for 20 minutes followed by centrifugation at >20,000×g for 5 min. Supernatants were transferred to fresh microtubes and stored at −80° C. Total protein concentration was determined using a BCA assay with a BSA standard curve and concentration of all samples was adjusted to 1 mg/mL. […] Chemiluminescence signals were then detected using a LAS-4000 system with default settings and signals quantified using Image Studio Lite software (version 5.2). […]

GSPT1 = GSPT1 (Homo sapiens, UniProt P15170+Q96SW2); assay: Immunofluorescence assay for GSPT1 degradation in CAL-Si cells; parameters: CAL-Si cells were purchased from DSMZ (cat. Number ACC302); host or cells: CAL-Si (CAL-51) cells; settings: 6 hours treatment
Method: The representative compounds were tested in an immunofluorescence assay for their activity to bind to degrade GSPT1. CAL-Si cells were purchased from DSMZ (cat. Number ACC302), sub-cultured in 90% Dulbecco's MEM (4.5 g/L glucose, Gibco 11965)+10% […] inactivated FBS (BioConcept, 2-01F136I) and incubated at 37° C., 5% CO2. For the assay, imaging microtiterplate Cell Carrier 96 Ultra (Perkin Elmer 6055302) were pre-coated with Fibronectin (Sigma F085, 30 μl at 0.2 μg/ml) in PBS (100 μl, Gibco 14190) for 45 min at room temperature, rinsed with PBS and CAL-Si cells (30K cells/well) were plated and let to adhere overnight. Cells were treated with compounds typically using a serial dilution ranging from 30 μM to 0.1 nM for 6 hours. Compounds were stored at 10 mM DMSO stocks. Vehicle (DMSO), positive (CC-885, 10 μM) and rescue controls (positive control plus 0.2 μM bortezomib) were also included at this stage. Cells were subsequently rinsed with PBS and fixed in 10% Formalin solution (50 μl, Sigma HT5011)) for 20 mins at room temperature. Following three consecutive PBS washes (100 μl), cells were permeabilized in 0.1% Triton X-100 in PBS (Sigma 93443, 50 μl) for 15 mins at room temperature. Following three further PBS washes, […] blocking buffer (1% BSA, Sigma A4503, in PBS) was added for 45 min for signal-to-noise reduction.
Primary antibody (human GSPT1, Sigma HPA052488) was diluted in blocking buffer (dil.1/300, 35 μl/well) and incubated with the cells overnight at 4° C. After three PBS washes, Alexa-fluor 488 coupled secondary antibodies (Invitrogen, A32731, dil.1/1000), Alexa-fluor 647-Phalloidin (Invitrogen, A22287, dil.1/200) and DAPI (Thermo, #62248, dil.1/1000) were diluted in blocking buffer and incubated with the samples for 2 hours at room temperature. After three final PBS washes, samples were conserved in […] PBS in the dark, until measurement. Image acquisition was performed on the Operetta High-Content Imager (Perkin-Elmer). Fluorescence intensity of Alexa-Fluor 488 (GSPT1), Alexa-Fluor 647 (Actin) and DAPI (Nucleus) were measured. For the determination of GSPT1 DC50 values, a custom algorithm implemented in the PerkinElmer image analysis software Harmony-Acapella® was developed. After user-defined setting of adjustment parameters, the analysis was run identically without human intervention for all image fields. DAPI staining of the nuclei was used to determine the location of cells using standard nuclei detection modules. Segmentation artifacts were removed by threshold-based filters for area, roundness and intensity. The outline of the cells was determined analogously from the sum of the normalized, smoothed DAPI and Actin channel, starting from each nucleus.
The Alexa-Fluor 488 (GSPT1) signal intensity in each cell was finally measured, in order to obtain a Mean intensity per cell. GSPT1 degradation (DC50) was calculated after normalization to controls and data import in CDD vault Database, using non-linear regression.

IKZF3 = target: T2, IKZF3 (Homo sapiens, UniProt Q96SW2+Q9UKT9); assay: Selectivity determination by Western blot assay in MM1S cells: IKZF3; parameters: key: A represents no degradation observed at 30 μM; B represents trace degradation at 30 μM (below 20%); C represents weak degradation at 30 μM (below 50%); D represents degradation at 30 μM (>90%); E represents degradation at 3 μM (>90%); F represents degradation at 0.3 μM (>90%); settings: MM1S cells, 0.3, 3 and 30 μM, 6 hours
T2 construct: MM1S cells were purchased from ATCC (cat. Number CRL-2974); host or cells: MM1S cells
Method: as §1

[1] = read-out: Code: activity for GSPT1 degradation (DC50)
[2] = GSPT1 degradation, read-out: DC50

GSPT1, sequence (P15170 whole entry): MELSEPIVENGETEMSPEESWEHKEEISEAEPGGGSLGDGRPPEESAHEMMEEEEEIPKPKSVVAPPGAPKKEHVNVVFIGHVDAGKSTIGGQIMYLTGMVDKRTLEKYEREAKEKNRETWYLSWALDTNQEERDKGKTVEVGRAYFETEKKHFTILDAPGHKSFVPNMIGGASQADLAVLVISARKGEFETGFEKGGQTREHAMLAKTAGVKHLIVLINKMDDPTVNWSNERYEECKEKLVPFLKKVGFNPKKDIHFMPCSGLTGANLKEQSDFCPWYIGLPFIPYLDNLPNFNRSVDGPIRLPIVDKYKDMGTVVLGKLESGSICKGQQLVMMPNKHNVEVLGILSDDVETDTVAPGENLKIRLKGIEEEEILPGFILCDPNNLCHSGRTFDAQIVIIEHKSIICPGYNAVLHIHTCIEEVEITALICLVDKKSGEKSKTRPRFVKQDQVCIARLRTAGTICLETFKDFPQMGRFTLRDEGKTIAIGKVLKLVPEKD
GSPT1, sequence (Q96SW2 whole entry): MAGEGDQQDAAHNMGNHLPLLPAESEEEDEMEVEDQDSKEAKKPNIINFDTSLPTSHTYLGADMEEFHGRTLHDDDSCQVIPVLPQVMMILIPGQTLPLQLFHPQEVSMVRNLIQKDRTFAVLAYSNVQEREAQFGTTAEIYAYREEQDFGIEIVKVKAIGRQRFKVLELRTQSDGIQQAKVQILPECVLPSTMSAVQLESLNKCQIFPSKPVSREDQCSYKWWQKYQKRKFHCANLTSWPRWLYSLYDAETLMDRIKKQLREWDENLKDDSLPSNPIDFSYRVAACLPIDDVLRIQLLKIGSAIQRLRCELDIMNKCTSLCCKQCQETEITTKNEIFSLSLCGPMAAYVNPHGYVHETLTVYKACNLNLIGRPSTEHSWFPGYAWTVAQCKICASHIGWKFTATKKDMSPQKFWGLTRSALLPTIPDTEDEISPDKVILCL
GSPT1, sequence (Q16531 whole entry partner): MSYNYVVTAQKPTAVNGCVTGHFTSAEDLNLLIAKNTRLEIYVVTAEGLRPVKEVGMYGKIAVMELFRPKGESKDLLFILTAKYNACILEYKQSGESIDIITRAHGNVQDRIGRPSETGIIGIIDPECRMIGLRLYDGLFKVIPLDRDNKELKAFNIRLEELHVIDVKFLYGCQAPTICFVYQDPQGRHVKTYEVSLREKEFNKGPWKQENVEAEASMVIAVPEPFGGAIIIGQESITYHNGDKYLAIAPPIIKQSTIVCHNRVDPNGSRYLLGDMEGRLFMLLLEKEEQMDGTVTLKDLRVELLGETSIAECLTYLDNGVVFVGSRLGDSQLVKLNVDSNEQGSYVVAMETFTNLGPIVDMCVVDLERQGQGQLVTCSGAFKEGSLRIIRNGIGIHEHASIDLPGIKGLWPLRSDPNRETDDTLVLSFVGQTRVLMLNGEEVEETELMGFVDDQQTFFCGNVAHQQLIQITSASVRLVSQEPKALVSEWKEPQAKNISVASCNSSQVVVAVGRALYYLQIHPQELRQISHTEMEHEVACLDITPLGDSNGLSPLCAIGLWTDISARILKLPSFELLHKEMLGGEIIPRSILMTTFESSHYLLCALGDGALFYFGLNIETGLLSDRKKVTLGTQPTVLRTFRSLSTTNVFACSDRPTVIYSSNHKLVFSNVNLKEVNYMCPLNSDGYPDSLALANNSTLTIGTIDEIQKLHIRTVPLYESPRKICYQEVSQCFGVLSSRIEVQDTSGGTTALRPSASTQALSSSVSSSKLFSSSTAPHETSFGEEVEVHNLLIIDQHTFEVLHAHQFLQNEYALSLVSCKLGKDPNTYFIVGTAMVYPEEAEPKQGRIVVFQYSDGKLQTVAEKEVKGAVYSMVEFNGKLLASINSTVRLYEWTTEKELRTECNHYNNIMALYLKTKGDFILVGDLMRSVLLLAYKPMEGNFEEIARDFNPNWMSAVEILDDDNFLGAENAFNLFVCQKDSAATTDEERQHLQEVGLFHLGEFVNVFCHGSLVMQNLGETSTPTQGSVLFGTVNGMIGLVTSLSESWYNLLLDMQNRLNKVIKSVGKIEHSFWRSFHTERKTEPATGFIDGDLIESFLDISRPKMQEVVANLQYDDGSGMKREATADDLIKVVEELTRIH
T1 sequence (P48729 whole entry): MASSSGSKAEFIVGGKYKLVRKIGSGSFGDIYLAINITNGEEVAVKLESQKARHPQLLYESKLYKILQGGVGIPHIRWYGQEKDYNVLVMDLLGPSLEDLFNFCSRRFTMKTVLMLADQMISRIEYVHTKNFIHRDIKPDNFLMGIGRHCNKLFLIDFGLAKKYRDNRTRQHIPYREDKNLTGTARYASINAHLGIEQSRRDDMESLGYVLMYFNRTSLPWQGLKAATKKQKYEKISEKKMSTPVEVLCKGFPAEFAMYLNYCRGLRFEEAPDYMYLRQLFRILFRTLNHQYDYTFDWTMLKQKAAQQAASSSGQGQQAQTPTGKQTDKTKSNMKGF
T1 sequence (Q96SW2 whole entry): as the sequence (Q96SW2 whole entry) above
T1 sequence (Q16531 whole entry partner): as the sequence (Q16531 whole entry partner) above
T2 sequence (Q9UKT9 whole entry): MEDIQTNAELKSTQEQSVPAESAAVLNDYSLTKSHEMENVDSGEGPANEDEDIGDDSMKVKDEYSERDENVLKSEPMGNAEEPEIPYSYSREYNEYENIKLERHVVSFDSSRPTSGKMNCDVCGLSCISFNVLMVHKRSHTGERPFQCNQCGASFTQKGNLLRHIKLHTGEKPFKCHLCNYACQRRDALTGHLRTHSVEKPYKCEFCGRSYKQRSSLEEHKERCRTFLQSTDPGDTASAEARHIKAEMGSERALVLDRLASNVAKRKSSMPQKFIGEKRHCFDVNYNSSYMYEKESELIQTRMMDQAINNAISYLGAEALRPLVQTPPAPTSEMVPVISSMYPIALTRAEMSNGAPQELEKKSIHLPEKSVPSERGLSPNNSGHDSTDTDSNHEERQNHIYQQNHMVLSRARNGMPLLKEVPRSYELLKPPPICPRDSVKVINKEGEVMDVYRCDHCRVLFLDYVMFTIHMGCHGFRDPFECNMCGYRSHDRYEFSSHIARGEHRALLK
T2 sequence (Q96SW2 whole entry): as the sequence (Q96SW2 whole entry) above
T2 sequence (Q16531 whole entry partner): as the sequence (Q16531 whole entry partner) above

Row | Structure (SMILES) | CK1alpha degradation code (CK1alpha) | DC50 (GSPT1; [1]) [nM] | DC50 (GSPT1; [2]) [nM] | IKZF3 degradation code (IKZF3)
1 | Cc1ccc(NC(=O)CCc2ccc3c(c2)C(=O)N(C2CCC(=O)NC2=O)C3)cc1Cl (centres unmarked) [Compound 1] | B (B represents trace degradation at 30 μM (below 20%)) | ≤ 30 | 16 | A
2 | Cc1c(Cl)cc(NC(=O)CCc2ccc3c(c2)C(=O)N(C2CCC(=O)NC2=O)C3)cc1CN1CCOCC1 (centres unmarked) [Compound 2] | C (C represents weak degradation at 30 μM (below 50%)) | ≤ 30 | 6 | C (C represents weak degradation at 30 μM (below 50%))
